Test results from patent US9409917B2, “Heterocyclic amide derivatives as P2X7 receptor antagonists” (ACTELION PHARMACEUTICALS LTD., priority 2012, dated 2016).

The compounds below were run against human recombinant P2X7 receptor (Homo sapiens (Human), UniProt Q99572) (assay: YO-PRO assay: P2X7 receptor antagonistic activity (ATP-induced YO-PRO-1 uptake, FLIPR)). Settings: not given.
human recombinant P2X7 receptor, sequence (Q99572 whole entry): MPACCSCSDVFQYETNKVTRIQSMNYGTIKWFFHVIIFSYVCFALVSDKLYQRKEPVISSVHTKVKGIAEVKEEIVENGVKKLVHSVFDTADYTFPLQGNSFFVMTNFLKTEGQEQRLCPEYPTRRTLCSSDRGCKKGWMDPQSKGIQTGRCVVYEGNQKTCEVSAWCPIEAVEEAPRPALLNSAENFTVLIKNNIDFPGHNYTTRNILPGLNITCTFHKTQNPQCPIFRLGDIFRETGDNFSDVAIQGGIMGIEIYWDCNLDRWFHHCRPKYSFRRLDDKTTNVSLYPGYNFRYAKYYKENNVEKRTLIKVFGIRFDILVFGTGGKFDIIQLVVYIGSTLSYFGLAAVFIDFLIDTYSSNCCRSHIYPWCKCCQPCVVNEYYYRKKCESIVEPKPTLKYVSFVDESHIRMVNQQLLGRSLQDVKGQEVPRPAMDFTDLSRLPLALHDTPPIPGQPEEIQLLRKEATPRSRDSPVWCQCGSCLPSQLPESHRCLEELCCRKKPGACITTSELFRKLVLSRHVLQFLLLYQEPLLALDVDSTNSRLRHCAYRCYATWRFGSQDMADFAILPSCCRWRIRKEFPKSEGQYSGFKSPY

| Compound | IC50 [nM] |
| --- | --- |
| O=C(NCc1c(Cl)cc(Cl)cc1C(F)(F)F)C1COc2ncccc21 (racemic) [Example 68, rac-2,3-Dihydro-furo[2,3-b]pyridine-3-carboxylic acid 2,4-dichloro-6-trifluoromethyl-benzylamide] | 13.8 |
| COCc1cc(Cl)cc(Cl)c1CNC(=O)C1COc2ncccc21 (racemic) [Example 72, rac-2,3-Dihydro-furo[2,3-b]pyridine-3-carboxylic acid 2,4-dichloro-6-methoxymethyl-benzylamide] | 14.6 |
| O=C1CC(NC(=O)C2COc3ncccc32)c2ccccc21 (racemic) [Example 88, rac-2,3-Dihydro-furo[2,3-b]pyridine-3-carboxylic acid (3-oxo-indan-1-yl)-amide] | 1450 |
| O=C1CC(NC(=O)C2COc3ncccc32)c2ccccc21 (racemic) [Example 89, rac-2,3-Dihydro-furo[2,3-b]pyridine-3-carboxylic acid (3-oxo-indan-1-yl)-amide] | 2510 |
| O=C(NCc1c(Cl)cc(Cl)cc1COCCO)C1COc2ncccc21 (racemic) [Example 93, rac-2,3-Dihydro-furo[2,3-b]pyridine-3-carboxylic acid 2,4-dichloro-6-(2-hydroxy-ethoxymethyl)-benzylamide] | 11.4 |
| [2H]C([2H])([2H])c1cc(Cl)cc(Cl)c1CNC(=O)C1COc2ncccc21 (racemic) [Example 96, rac-2,3-Dihydro-furo[2,3-b]pyridine-3-carboxylic acid 2,4-dichloro-6-trideuteromethyl-benzylamide] | 2.7 |
| O=C(NCc1ccc(C(F)(F)F)cc1Cl)C1COc2ncccc21 (racemic) [Example 103, rac-2,3-Dihydro-furo[2,3-b]pyridine-3-carboxylic acid 2-chloro-4-trifluoromethyl-benzylamide] | 80.4 |
| O=C(NCCCc1ccc(Cl)cc1Cl)C1COc2ncccc21 (racemic) [Example 106, rac-2,3-Dihydro-furo[2,3-b]pyridine-3-carboxylic acid [3-(2,4-dichloro-phenyl)-propyl]-amide] | 346 |
| O=C(NCc1c(Cl)cc(Cl)cc1Cl)C1COc2ncccc21 (racemic) [Example 114, rac-2,3-Dihydro-furo[2,3-b]pyridine-3-carboxylic acid 2,4,6-trichloro-benzylamide] | 12.5 |
| O=C(NCc1c(Cl)cccc1CO)C1COc2ncccc21 (racemic) [Example 118, rac-2,3-Dihydro-furo[2,3-b]pyridine-3-carboxylic acid 2-chloro-6-hydroxymethyl-benzylamide] | 304 |
| O=C(NC(CO)C1CCCCCC1)C1COc2ncccc21 (single isomer, unassigned) [Example 13, rac-2,3-Dihydro-furo[2,3-b]pyridine-3-carboxylic acid (1-cycloheptyl-2-hydroxy-ethyl)-amide] | 813 |
| O=C(NC(CO)C1CCCCCC1)C1COc2ncccc21 (single isomer, unassigned) [Example 14, rac-2,3-Dihydro-furo[2,3-b]pyridine-3-carboxylic acid (1-cycloheptyl-2-hydroxy-ethyl)-amide] | 117 |
| Cc1ncc(C(CNC(=O)C2COc3ncccc32)N2CCC(F)(F)CC2)cn1 (single isomer, unassigned) [Example 27, rac-2,3-Dihydro-furo[2,3-b]pyridine-3-carboxylic acid [2-(4,4-difluoro-piperidin-1-yl)-2-(2-methyl-pyrimidin-5-yl)-ethyl]-amide] | 1360 |
| Cc1ncc(C(CNC(=O)C2COc3ncccc32)N2CCC(F)(F)CC2)cn1 (single isomer, unassigned) [Example 28, rac-2,3-Dihydro-furo[2,3-b]pyridine-3-carboxylic acid [2-(4,4-difluoro-piperidin-1-yl)-2-(2-methyl-pyrimidin-5-yl)-ethyl]-amide] | 58.9 |
| O=C(NCC(c1cnc(C(F)(F)F)nc1)N1CCOCC1)C1COc2ncccc21 (single isomer, unassigned) [Example 59, rac-2,3-Dihydro-furo[2,3-b]pyridine-3-carboxylic acid [2-morpholin-4-yl-2-(2-trifluoromethyl-pyrimidin-5-yl)-ethyl]-amide] | 346 |
| O=C(NCC(c1cnc(C(F)(F)F)nc1)N1CCOCC1)C1COc2ncccc21 (single isomer, unassigned) [Example 60, rac-2,3-Dihydro-furo[2,3-b]pyridine-3-carboxylic acid [2-morpholin-4-yl-2-(2-trifluoromethyl-pyrimidin-5-yl)-ethyl]-amide] | 29 |
| [2H]C([2H])([2H])c1cc(Cl)cc(Cl)c1CNC(=O)C1COc2ncccc21 (single isomer, unassigned) [Example 97, 2,3-Dihydro-furo[2,3-b]pyridine-3-carboxylic acid 2,4-dichloro-6-trideuteromethyl-benzylamide] | 20 |
| [2H]C([2H])([2H])c1cc(Cl)cc(Cl)c1CNC(=O)C1COc2ncccc21 (single isomer, unassigned) [Example 98, 2,3-Dihydro-furo[2,3-b]pyridine-3-carboxylic acid 2,4-dichloro-6-trideuteromethyl-benzylamide] | 1.8 |
| O=C(NC1CCc2cc(Cl)ccc21)C1COc2ncccc21 (single isomer, unassigned) [Example 99, rac-2,3-Dihydro-furo[2,3-b]pyridine-3-carboxylic acid (5-chloro-indan-1-yl)-amide] | 301 |
| O=C(NC1CCc2cc(Cl)ccc21)C1COc2ncccc21 (single isomer, unassigned) [Example 100, rac-2,3-Dihydro-furo[2,3-b]pyridine-3-carboxylic acid (5-chloro-indan-1-yl)-amide] | 59.9 |

Same assay, conditions: read-out: IC50 [nM], antagonistic activities with respect to the P2X7 receptor

| Compound | IC50 [nM] |
| --- | --- |
| Cc1cc(Cl)cc(Cl)c1CNC(=O)C1COc2c1ccc[n+]2[O-] (racemic) [Example 115, rac-7-Oxy-2,3-dihydro-furo[2,3-b]pyridine-3-carboxylic acid 2,4-dichloro-6-methyl-benzylamide] | 35.4 |

Same assay, conditions: read-out: IC50 [nM], antagonistic activities with respect to the P2X7 receptor; HEK-293 cells expressing human recombinant P2X7 receptor; YO-PRO-1 fluorescence; ATP 250 μM, 90 minutes; highest concentration 10 μM

| Compound | IC50 [nM] |
| --- | --- |
| O=C(N[C@H](CO)C1CCCCC1)C1COc2ncccc21 (single isomer, unassigned) [Example 1] | 1070 |
| O=C(N[C@H](CO)C1CCCCC1)C1COc2ncccc21 (single isomer, unassigned) [Example 2] | 106 |
| Cc1cc(Cl)cc(Cl)c1CNC(=O)C1COc2ncccc21 (single isomer, unassigned) [Example 3, 2,3-Dihydro-furo[2,3-b]pyridine-3-carboxylic acid 2,4-dichloro-6-methyl-benzylamide] | 18.3 |
| Cc1cc(Cl)cc(Cl)c1CNC(=O)C1COc2ncccc21 (single isomer, unassigned) [Example 4, 2,3-Dihydro-furo[2,3-b]pyridine-3-carboxylic acid 2,4-dichloro-6-methyl-benzylamide] | 2.9 |
| O=C(N[C@H](CO)c1ccc(Cl)cc1Cl)C1COc2ncccc21 (single isomer, unassigned) [Example 6] | 621 |
| O=C(N[C@H](CO)c1ccc(Cl)cc1Cl)C1COc2ncccc21 (single isomer, unassigned) [Example 7] | 117 |
| Cc1cc(Cl)cc(Cl)c1CNC(=O)C1CCOc2ncccc21 (single isomer, unassigned) [Example 17, 3,4-Dihydro-2H-pyrano[2,3-b]pyridine-4-carboxylic acid 2,4-dichloro-6-methyl-benzylamide] | 1.3 |
| Cc1cc(Cl)cc(Cl)c1CNC(=O)C1CCOc2ncccc21 (single isomer, unassigned) [Example 18, 3,4-Dihydro-2H-pyrano[2,3-b]pyridine-4-carboxylic acid 2,4-dichloro-6-methyl-benzylamide] | 1.6 |
| O=C(NCc1c(Cl)cc(Cl)cc1CO)C1COc2ncccc21 (single isomer, unassigned) [Example 24, 2,3-Dihydro-furo[2,3-b]pyridine-3-carboxylic acid 2,4-dichloro-6-hydroxymethyl-benzylamide] | 39.4 |
| O=C(NCc1c(Cl)cc(Cl)cc1CO)C1COc2ncccc21 (single isomer, unassigned) [Example 25, 2,3-Dihydro-furo[2,3-b]pyridine-3-carboxylic acid 2,4-dichloro-6-hydroxymethyl-benzylamide] | 2.7 |
| O=C(NCc1c(Cl)cc(Cl)cc1Br)C1COc2ncccc21 (single isomer, unassigned) [Example 79, 2,3-Dihydro-furo[2,3-b]pyridine-3-carboxylic acid 2-bromo-4,6-dichloro-benzylamide] | 51.1 |
| O=C(NCc1c(Cl)cc(Cl)cc1Br)C1COc2ncccc21 (single isomer, unassigned) [Example 80, 2,3-Dihydro-furo[2,3-b]pyridine-3-carboxylic acid 2-bromo-4,6-dichloro-benzylamide] | 4.1 |
| O=C(NCC(c1cnc(C(F)(F)F)nc1)N1CCOCC1)C1COc2ncccc21 (single isomer, unassigned) [Example 81, 2,3-Dihydro-furo[2,3-b]pyridine-3-carboxylic acid [2-morpholin-4-yl-2-(2-trifluoromethyl-pyrimidin-5-yl)-ethyl]-amide] | 7520 |
| O=C(NCC(c1cnc(C(F)(F)F)nc1)N1CCOCC1)C1COc2ncccc21 (single isomer, unassigned) [Example 82, 2,3-Dihydro-furo[2,3-b]pyridine-3-carboxylic acid [2-morpholin-4-yl-2-(2-trifluoromethyl-pyrimidin-5-yl)-ethyl]-amide] | 2230 |
| O=C(NC(CO)C1CCCCCC1)C1CCOc2ncccc21 (stereo not shown) [Example 52, 3,4-Dihydro-2H-pyrano[2,3-b]pyridine-4-carboxylic acid (1-cycloheptyl-2-hydroxy-ethyl)-amide] | 276 |
| O=C(NCC(c1cnc(C(F)(F)F)nc1)N1CCC(F)(F)CC1)C1COc2ncccc21 (stereo not shown) [Example 62, 2,3-Dihydro-furo[2,3-b]pyridine-3-carboxylic acid [2-(4,4-difluoro-piperidin-1-yl)-2-(2-trifluoromethyl-pyrimidin-5-yl)-ethyl]-amide] | 46.9 |
